The values that follow come from article PMC7738880, “Identification of novel CD44v6-binding peptides that block CD44v6 and deliver a pro-apoptotic peptide to tumors to inhibit tumor growth and metastasis in mice” (Theranostics, 2021).

SMILES strings stand for the structures. Residues, ends and D or L forms follow the SMILES beside them.

One series concerns MDA-MB231-luc cells. In words: MDA-MB231-luc experimental lung metastasis model. It is filed as in vivo. As to conditions: for number of tumor nodules in the lungs, peptide in combination with crizotinib versus single treatment / survival rate, peptide in combination with crizotinib versus single treatment: peptide 14.2 mg/kg i.v. plus crizotinib 25 mg/kg oral; for numbers of metastatic tumor nodules in the lungs / weights of the isolated lungs: peptide 14.2 mg/kg i.v. thrice weekly for 3 weeks; for luminescence signals and total photon flux in the whole body: peptide 14.2 mg/kg i.v. thrice weekly for 3 weeks from 1 h after tumor cell injection; for survival rate: peptide 14.2 mg/kg i.v. thrice weekly or crizotinib 25 mg/kg oral twice weekly, 3 weeks, single treatment; for liver and kidney functional marker levels (BUN, CRE, AST, ALT): peptide alone or in combination with crizotinib, serum, n = 5/group. The procedure: A mouse model of lung metastasis of breast cancer was prepared by injecting 1 × 10^6 MDA-MB231-luc cells into 6-week-old female BALB/c nude mice via tail vein. To monitor the localization of the tumor cells in the lungs, the mice were injected intraperitoneally with D-luciferin at a dose of 150 mg/kg body weight and subjected to a whole-body bioluminescence imaging using IVIS imaging system (Perkin Elmer) after a 10-min resting period. Mice (n = 10 per group) were randomly assigned to groups based on the luminescence intensity. At 1 h after tumor cell injection, tumor-bearing mice received intravenous injections of CD44v6-binding peptides through the tail vein (14.2 mg/kg body weight, thrice weekly for 3 weeks) alone or in combination with orally administered crizotinib in 5% dimethyl sulfoxide (DMSO) (25 mg/kg of body weight, twice weekly for 3 weeks) as previously described, [29]. Metastatic tumor growth after treatments was monitored by measuring the total photon flux (number of photons/second) in the whole body using the IVIS imaging system. The body weights of mice and tumor ulceration were monitored throughout the treatment period. At the end of the treatment period, half of the mice (n = 5 per group) were used for the collection of blood, sacrificed, the lungs were harvested and weighed, and the numbers of metastatic tumor nodules in the lungs were counted. The remaining mice (n = 5 per group) were maintained until death to determine the survival rates. For the analysis of hematological parameters, 1 mL of blood was collected from each mouse and separated into 500 µL aliquots used to prepare serum and plasma. Serum was obtained by centrifuging clotted blood at 4 °C twice, followed by filtration (pore size: 0.22 µm). Plasma was obtained by centrifuging ethylenediaminetetraacetic acid-treated samples. Hematological parameters and liver and kidney function markers were measured by DGMIF (Daegu, Korea).

Series [1] deals with CD44v6-knockdown MDA-MB231 cells. In words: Peptide binding to CD44v6-knockdown cells (flow cytometry). As to conditions: FITC-labeled peptide 25 µM, MDA-MB231, siRNA knockdown 24 h. It is filed as cell-based, human. The procedure: Cells (1 × 10^5 cells) were harvested and suspended in culture medium containing 1% BSA for 1 h, followed by an incubation with FITC-labeled peptides (25 µM) at 4 °C for 1 h. After washing, the cells were analyzed using a FACSCalibur flow cytometer (BD, Franklin Lakes, NJ). For competition assays, cells were incubated with 5 µg/mL of an anti-human CD44v6 mouse monoclonal antibody (clone no. VFF-18, 1:100 dilution; Abcam, Cambridge, MA) and anti-human CD44 monoclonal antibody (clone no. 156-3C11, 1:100 dilution; ThermoFisher Scientific) for 1 h to compete with peptide binding, followed by an incubation with FITC-labeled peptides (10 µM) before analysis on a flow cytometer (BD). In another set of assays, cells were incubated with peptides (50 µM) for 1 h to compete with antibody binding, followed by an incubation with 5 µg/mL of the anti-human CD44v6 mouse monoclonal antibody for 1 h, The cells were then incubated with an Alexa Fluor 488-labeled goat anti-mouse IgG secondary antibody (Merck) before analysis on a flow cytometer (BD).
CD44v6 gene expression was knocked down using CD44v6 small interfering RNAs (siRNAs) as previously described. Two CD44v6-specific siRNAs (v6-1: 5ʹ-AGU ACA ACG GAA ATT-3ʹ and v6-2: 5ʹ-GGA UAU CGC CAAACA CCC ATT-3ʹ) were synthesized by Bioneer (Daejeon, Korea). Control siRNA (5ʹ-CUA CGC CAA UUU CGU (dTdT)-3ʹ) were purchased from Bioneer. […]
(In general: A flow cytometer gives signals particle by particle.)

In the case of `CC[C@H](C)[C@H](NC(=O)[C@@H](NC(=O)[C@H](CC(N)=O)NC(=O)[C@H](CC(C)C)NC(=O)[C@H](CC(N)=O)NC(=O)[C@@H](N)CS)[C@@H](C)O)C(=O)N[C@@H](CC(=O)O)C(=O)N[C@H](C(=O)N[C@@H](CS)C(=O)O)[C@@H](C)O` [NLN] (H-CNLNTIDTC-OH; N-terminus and C-terminus assumed), the “serum alanine transferase levels” value in the series with MDA-MB231-luc cells (above the normal ranges, 14.2 mg/kg i.v. thrice weekly for 3 weeks) is reported as “significantly increased”. Also, in the series on MDA-MB231-luc cells, the “number of tumor nodules in the lungs, peptide in combination with crizotinib versus single treatment” value was “more efficiently reduced”; the “survival rate, peptide in combination with crizotinib versus single treatment” value is given as “increased the survival rate”; the “numbers of metastatic tumor nodules in the lungs” value was “reduced”; the “weights of the isolated lungs” value is reported as “reduced”. Also, in the series on MDA-MB231-luc cells, the “luminescence signals and total photon flux in the whole body” value is listed as “decreased”; the survival rate entry was “increased”; the “liver and kidney functional marker levels (BUN, CRE, AST, ALT)” value is listed as “within or close to the normal ranges”. Further, the “decrease of cellular binding to CD44v6-knockdown cells compared with wild-type cells” value in series [1] is on record as 6-7 fold.

Turning to `CC(C)C[C@H](NC(=O)[C@H](CCC(N)=O)NC(=O)[C@H](Cc1c[nH]c2ccccc12)NC(=O)[C@H](CCC(=O)O)NC(=O)[C@H](CC(N)=O)NC(=O)[C@@H](N)CS)C(=O)N[C@@H](CCCCN)C(=O)N[C@@H](CO)C(=O)N[C@@H](CS)C(=O)O` [NEW] (H-CNEWQLKSC-OH; N-terminus and C-terminus assumed), in the series with MDA-MB231-luc cells, the “number of tumor nodules in the lungs, peptide in combination with crizotinib versus single treatment” value is recorded as “more efficiently reduced”; the “survival rate, peptide in combination with crizotinib versus single treatment” value is recorded as “increased the survival rate”; the “numbers of metastatic tumor nodules in the lungs” value was “reduced”; the “weights of the isolated lungs” value was “reduced”. In the series on MDA-MB231-luc cells, the “luminescence signals and total photon flux in the whole body” value is recorded as “decreased”; the survival rate entry was “increased”; the “liver and kidney functional marker levels (BUN, CRE, AST, ALT)” value is “within or close to the normal ranges”. Moreover, in series [1], the “decrease of cellular binding to CD44v6-knockdown cells compared with wild-type cells” value is on record as 6-7 fold.
